The assay has as its system ADP-induced platelet aggregation in dog platelet-rich plasma (PRP). The assay can be described thus: In-Vitro Platelet Aggregation in PRP. As to conditions: aggregation induced by ADP (50 μm final concentration), 1 minute preincubation at 37° C. The format is cell-based. Here is the method: In-Vitro Platelet Aggregation in PRP
Healthy male or female dogs were fasted for 8 hours prior to drawing blood; then 30 ml whole blood was collected using a butterfly needle and 30 cc plastic syringe with 3 ml of 0.129M buffered sodium citrate (3.8%). The syringe was rotated carefully as blood was drawn to mix the citrate. Platelet-rich plasma (PRP) was prepared by centrifugation at 975×g for 3.17 minutes at room temperature, allowing the centrifuge to coast to a stop without braking. The PRP was removed from the blood with a plastic pipette and placed in a plastic capped, 50 ml Corning conical sterile centrifuge tube which was held at room temperature. Platelet poor plasma (PPP) was prepared by centrifuging the remaining blood at 2000×g for 15 minutes at room temperature allowing the centrifuge to coast to a stop without braking. The PRP was adjusted with PPP to a count of 2-3×10^8 platelets per ml. 400 μl of the PRP preparation and 50 μl of the compound to be tested or saline were preincubated for 1 minute at 37° C. in a BioData aggregometer (BioData, Horsham, Pa.). 50 μl of adenosine 5'-diphosphate (ADP) (50 μm final concentration) was added to the cuvettes and the aggregation was monitored for 1 minute. […] Results are calculated as follows: [formula]
The assay results for the compound of Example 1 and its median inhibitory concentration (IC50) is recorded in Table I.

The text below walks through data of patent US5811398A, “Platelet aggregation inhibitors containing C-terminal aminergic side chain amino acid residues” (G. D. Searle & Co., priority 1995, dated 1998).

Broadly, the IC50 is the midpoint of a concentration-inhibition curve. A high value points to a need for much substance. On to `N=C(N)c1ccc(NC(=O)CCC(=O)N[C@@H](CC(=O)O)C(=O)N[C@@H](CCCCN)C(=O)O)cc1` [Example 1, N-[4-[[4-(aminoiminomethyl)phenyl]amino]-1,4-dioxobutyl]-L-aspartyl]-L-lysine bistrifluoroacetate], for which the IC50 stood at 0.18 µM.
